The values that follow come from patent US8440830B2, “Tetrahydro-fused pyridines as histone deacetylase inhibitors” (4SC AG, priority 2007, dated 2013).

For orientation: EC50 means the concentration giving half of the maximal effect. A word on the IC50: it is the point on the concentration scale where inhibition reaches its midpoint.

Each structure is given as a SMILES string. Like-named read-outs stand apart in the source and are kept apart here. Where only a bound is given, the exact number is not on record here.

Assay [1] has as its system histone H3 hyperacetylation in HeLa cervical carcinoma cells. Put plainly: Cellular histone H3 hyperacetylation assay. In kind it is cell-based. The settings on record: Homo sapiens, 24 h treatment. The text has this:
To assess the cellular efficacy of a histone deacetylase inhibitor in vitro, an assay is set up in black clear-bottom 96-well plates and optimized for use on the Cellomics “ArrayScan II” platform for a quantitative calculation of histone acetylation. The protocol uses a polyclonal rabbit antibody, specifically binding to acetylated lysine 1-20 (including K 9 and K14) of human histone H3 on fixed cells with an Alexa Fluor 488 labeled goat anti rabbit-IgG used for counterstaining 5×10^3 HeLa cervical carcinoma cells/well (ATCC CCL-2) in 200 μl Dulbecco's modified Eagle's medium (DMEM) containing 10% fetal calf serum are seeded at day 1 in Packard view plates and incubated for 24 h under standard cell culture conditions. On day 2, 1 μl test compound (200× final concentration) is added and incubation continued for further 24 h. On day 3, the culture medium is discarded and attached cells fixed for 15 min at room temperature by addition of 100 μl fixation buffer (3.7% v:v formaldehyde in phosphate buffered saline/PBS). After discarding the fixation buffer and one wash with blocking solution (1% BSA, 0.3% Tween 20 in PBS), cells are permeabilized at room temperature by addition of 100 μl /well permeabilization buffer (30.8 mM NaCl, 0.54 mM Na2HPO4, 0.31 mM KH2PO4, 0.1% v:v Triton X-100) for 15 min at room temperature. After discarding the permeabilization buffer and washing twice with 100 μl/well blocking solution at room temperature, the 1st antibody (anti-K1-20 histone H3 antibody, Calbiochem No. 382158) in blocking solution (50 μl/well) is added. After incubation for 1 h at room temperature, the wells are washed twice at room temperature with 100 μl/well blocking solution before addition of the 2nd antibody (goat-anti-rabbit Alexa Fluor 488; MoBiTec No. A -11008) in blocking solution (50 μl well). After further incubation for 1 h at room temperature, wells are washed twice with 100 μl/well blocking solution at room temperature. Finally, 100 μl/well PBS are added and image analysis performed on the Cellomics “ArrayScan II” platform. For EC50 determination, the percentage of positive cells showing nuclear fluorescence is determined and EC50 calculation done from concentration-effect curves by means of non-linear regression. For calibration, a positive (reference HDAC inhibitors like SAHA or NVP LBH-589) and a negative control were included.

The test system of the next assay is A549 NSCLC cells. In words: Cellular cytotoxicity assay (Alamar Blue), A549. Type of assay: cell-based. Conditions: Homo sapiens, 72 h, upper end given as ≧100, read-out: IC50 (μM), cytotoxicity towards A549 NSCLC cells. The procedure, abridged: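 Cells were dosed 24 h after seeding with semi-log compound dilutions in quadruplicate, then incubated 72 h at 37 °C, 5% CO2. Viability read by Resazurin reduction (4 h, fluorescence 544/590 nm) relative to untreated 0.5% DMSO controls; IC50 by non-linear regression.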
On the technique in general: Alamar Blue is a resazurin reagent that responds to reducing activity.

Setting [2] is: read-out: EC50, induction of histone H3 hyperacetylation.
[3] abbreviates: read-out: −lg EC50, induction of histone H3 hyperacetylation.

For `CC(=O)N1CCc2nc(C(=O)Nc3ccccc3N)sc2C1` [Example 92, 5-acetyl-N-(2-aminophenyl)-4,5,6,7-tetrahydro[1,3]thiazolo[5,4-c]pyridine-2-carboxamide], the EC50 lay within 150 to 15000 nM in assay [1] (setting [2]) and 251 to 15800 nM in assay [1] (setting [3]). Further, in the assay with A549 NSCLC cells, the IC50 is not below 0.2 µM.

On to `Cc1ccc(C(=O)N2CCc3nc(C(=O)Nc4ccccc4N)sc3C2)cn1` [Example 96, N-(2-aminophenyl)-5-[(6-methylpyridin-3-yl)carbonyl]-4,5,6,7-tetrahydro-[1,3]thiazolo[5,4-c]pyridine-2-carboxamide], for which the EC50 in assay [1] (setting [2]) is 150 to 15000 nM; in assay [1] (setting [3]), 251 to 15800 nM. Besides, the IC50 in the assay with A549 NSCLC cells was not below 0.2 µM.

Regarding `N#CN=C(Nc1ccccc1)N1CCc2nc(C(=O)Nc3ccccc3N)sc2C1` [Example 116, N-(2-aminophenyl)-5-[anilino(cyanoimino)methyl]-4,5,6,7-tetrahydro[1,3]thiazolo[5,4-c]pyridine-2-carboxamide], the EC50 was in the range of 150 to 15000 nM in assay [1] (setting [2]) and 251 to 15800 nM in assay [1] (setting [3]). Besides, the IC50 in the assay with A549 NSCLC cells is not below 0.2 µM.

Turning to `COc1ccc(NC(=NC#N)N2CCc3nc(C(=O)Nc4ccccc4N)sc3C2)cc1` [Example 117, N-(2-aminophenyl)-5-{(cyanoimino)[(4-methoxyphenyl)amino]methyl}-4,5,6,7-tetrahydro[1,3]thiazolo[5,4-c]pyridine-2-carboxamide], the EC50 lay in the range of 150 to 15000 nM in assay [1] (setting [2]) and 251 to 15800 nM in assay [1] (setting [3]). Moreover, in the assay with A549 NSCLC cells, the IC50 was not below 0.2 µM.

Turning to `COc1ccc(NC(=NC#N)N2CCc3nc(C(=O)Nc4ccccc4N)sc3C2)cc1OC` [Example 118, N-(2-aminophenyl)-5-{(cyanoimino)[(3,4-dimethoxyphenyl)amino]methyl}-4,5,6,7-tetrahydro[1,3]thiazolo[5,4-c]pyridine-2-carboxamide], the EC50 in assay [1] (setting [2]) is 150 to 15000 nM; in assay [1] (setting [3]) it was 251 to 15800 nM. Moreover, the IC50 with A549 NSCLC cells was not below 0.2 µM.

As for `N#CN=C(NCc1ccccc1)N1CCc2nc(C(=O)Nc3ccccc3N)sc2C1` [Example 122, N-(2-aminophenyl)-5-[(benzylamino)(cyanoimino)methyl]-4,5,6,7-tetrahydro[1,3]thiazolo[5,4-c]pyridine-2-carboxamide], the figures for the EC50 in assay [1] (setting [2]) and in assay [1] (setting [3]) were 150 to 15000 nM and 251 to 15800 nM, respectively. Moreover, the IC50 in the assay with A549 NSCLC cells was not below 0.2 µM.

On to `Nc1ccccc1NC(=O)c1nc2c(s1)CN(S(=O)(=O)c1ccc(-c3ccccc3)cc1)CC2` [Example 152, N-(2-aminophenyl)-5-(biphenyl-4-ylsulfonyl)-4,5,6,7-tetrahydro[1,3]thiazolo[5,4-c]pyridine-2-carboxamide], for which the EC50 in assay [1] (setting [2]) lay within 150 to 15000 nM; in assay [1] (setting [3]), 251 to 15800 nM. Moreover, the IC50 in the assay on A549 NSCLC cells is not below 0.2 µM.

For `CS(=O)(=O)N1CCc2nc(C(=O)Nc3ccccc3N)sc2C1` [Example 154, N-(2-aminophenyl)-5-(methylsulfonyl)-4,5,6,7-tetrahydro[1,3]thiazolo[5,4-c]pyridine-2-carboxamide], the EC50 in assay [1] (setting [2]) was 150 to 15000 nM; in assay [1] (setting [3]), 251 to 15800 nM. The IC50 in the assay with A549 NSCLC cells is not below 0.2 µM.

On to `COc1cccc(S(=O)(=O)N2CCc3nc(C(=O)Nc4ccccc4N)sc3C2)c1` [Example 160, N-(2-aminophenyl)-5-[(3-methoxyphenyl)sulfonyl]-4,5,6,7-tetrahydro[1,3]thiazolo[5,4-c]pyridine-2-carboxamide], for which the figures for the EC50 in assay [1] (setting [2]) and in assay [1] (setting [3]) were 150 to 15000 nM and 251 to 15800 nM, respectively. The IC50 with A549 NSCLC cells was not below 0.2 µM.

Take `Cc1ccc(OCC(=O)N2CCc3nc(C(=O)Nc4ccccc4N)sc3C2)cc1` [Example 173, N-(2-aminophenyl)-5-[(4-methylphenoxy)acetyl]-4,5,6,7-tetrahydro[1,3]thiazolo[5,4-c]pyridine-2-carboxamide]: the EC50 in assay [1] (setting [2]) was in the range of 150 to 15000 nM; in assay [1] (setting [3]), 251 to 15800 nM. In addition, the IC50 in the assay on A549 NSCLC cells is not below 0.2 µM.

Regarding `COc1ccc(OCC(=O)N2CCc3nc(C(=O)Nc4ccccc4N)sc3C2)cc1` [Example 174, N-(2-aminophenyl)-5-[(4-methoxyphenoxy)acetyl]-4,5,6,7-tetrahydro[1,3]-thiazolo[5,4-c]pyridine-2-carboxamide], the EC50 fell in the range of 150 to 15000 nM in assay [1] (setting [2]) and 251 to 15800 nM in assay [1] (setting [3]). Besides, in the assay on A549 NSCLC cells, the IC50 was not below 0.2 µM.

Consider `Nc1ccccc1NC(=O)c1nc2c(s1)CN(C(=O)COc1ccc(-c3ccccc3)cc1)CC2` [Example 176, N-(2-aminophenyl)-5-[(biphenyl-4-yloxy)acetyl]-4,5,6,7-tetrahydro[1,3]thiazolo[5,4-c]pyridine-2-carboxamide], for which the concentration for a half-maximal effect (EC50) in assay [1] (setting [2]) fell in the range of 150 to 15000 nM; in assay [1] (setting [3]) it was 251 to 15800 nM. Moreover, the IC50 in the assay on A549 NSCLC cells is not below 0.2 µM.

As for `COC(=O)N1CCc2nc(C(=O)Nc3ccccc3N)sc2C1` [Example 180, Methyl 2-[(2-aminophenyl)carbamoyl]-6,7-dihydro[1,3]thiazolo[5,4-c]pyridine-5(4H)-carboxylate], the EC50 was 150 to 15000 nM in assay [1] (setting [2]) and 251 to 15800 nM in assay [1] (setting [3]). Further, the IC50 in the assay on A549 NSCLC cells is not below 0.2 µM.

For the compound `COc1ccc(OC(=O)N2CCc3nc(C(=O)Nc4ccccc4N)sc3C2)cc1` [Example 183, 4-methoxyphenyl 2-[(2-aminophenyl)carbamoyl]-6,7-dihydro[1,3]thiazolo[5,4-c]pyridine-5(4H)-carboxylate], the EC50 in assay [1] (setting [2]) was in the range of 150 to 15000 nM; in assay [1] (setting [3]), 251 to 15800 nM. The IC50 with A549 NSCLC cells was not below 0.2 µM.

With `COc1ccc(OC(=O)N2CCc3nc(C(=O)Nc4ccccc4N)sc3C2)cc1OC` [Example 186, 3,4-dimethoxyphenyl 2-[(2-aminophenyl)carbamoyl]-6,7-dihydro[1,3]thiazolo[5,4-c]pyridine-5(4H)-carboxylate], the values for the EC50 in assay [1] (setting [2]) and in assay [1] (setting [3]) were 150 to 15000 nM and 251 to 15800 nM, respectively. In addition, the IC50 with A549 NSCLC cells was not below 0.2 µM.

With `Nc1ccccc1NC(=O)c1nc2c(s1)CN(C(=O)C=Cc1ccc3c(c1)OCO3)CC2` [Example 190, N-(2-aminophenyl)-5-[3-(1,3-benzodioxol-5-yl)prop-2-enoyl]-4,5,6,7-tetrahydro[1,3]thiazolo[5,4-c]pyridine-2-carboxamide], the EC50 in assay [1] (setting [2]) was 150 to 15000 nM; in assay [1] (setting [3]) it was 251 to 15800 nM. The IC50 in the assay on A549 NSCLC cells is not below 0.2 µM.

Take `Nc1ccccc1NC(=O)c1nc2c(s1)CN(C(=O)C=Cc1ccc(O)c(O)c1)CC2` [Example 191, N-(2-aminophenyl)-5-[3-(3,4-dihydroxyphenyl)prop-2-enoyl]-4,5,6,7-tetrahydro[1,3]thiazolo[5,4-c]pyridine-2-carboxamide]: the concentration giving a half-maximal response (EC50) in assay [1] (setting [2]) was in the range of 150 to 15000 nM; in assay [1] (setting [3]) it was 251 to 15800 nM. Besides, the IC50 with A549 NSCLC cells is not below 0.2 µM.

As to `Nc1ccccc1NC(=O)c1nc2c(s1)CN(c1ncccn1)CC2` [Example 192, N-(2-aminophenyl)-5-pyrimidin-2-yl-4,5,6,7-tetrahydro[1,3]thiazolo[5,4-c]pyridine-2-carboxamide], the results for the EC50 in assay [1] (setting [2]) and in assay [1] (setting [3]) were 150 to 15000 nM and 251 to 15800 nM, respectively. For the same compound, the IC50 in the assay on A549 NSCLC cells was not below 0.2 µM.

Take `Nc1ccccc1NC(=O)c1nc2c(s1)CN(c1nccc(-c3cccnc3)n1)CC2` [Example 193, N-(2-aminophenyl)-5-(4-pyridin-3-ylpyrimidin-2-yl)-4,5,6,7-tetrahydro[1,3]thiazolo[5,4-c]pyridine-2-carboxamide]: the EC50 in assay [1] (setting [2]) was in the range of 150 to 15000 nM; in assay [1] (setting [3]), 251 to 15800 nM. For the same compound, in the assay on A549 NSCLC cells, the IC50 was not below 0.2 µM.

On to `Nc1ccccc1NC(=O)c1nc2c(s1)CN(c1ccc([N+](=O)[O-])cn1)CC2` [Example 194, N-(2-aminophenyl)-5-(5-nitropyridin-2-yl)-4,5,6,7-tetrahydro[1,3]thiazolo[5,4-c]pyridine-2-carboxamide], for which the results for the EC50 in assay [1] (setting [2]) and in assay [1] (setting [3]) were 150 to 15000 nM and 251 to 15800 nM, respectively. Besides, the IC50 with A549 NSCLC cells is not below 0.2 µM.

Regarding `Cc1ccc(S(=O)(=O)Nc2cnc(N3CCc4nc(C(=O)Nc5ccccc5N)sc4C3)nc2)cc1` [Example 196, N-(2-aminophenyl)-5-(5-{[(4-methylphenyl)sulfonyl]amino}pyrimidin-2-yl)-4,5,6,7-tetrahydro[1,3]thiazolo[5,4-c]pyridine-2-carboxamide], the EC50 in assay [1] (setting [2]) was 150 to 15000 nM; in assay [1] (setting [3]), 251 to 15800 nM. Further, in the assay on A549 NSCLC cells, the concentration for half-maximal inhibition (IC50) was not below 0.2 µM.
